{
  "source": "ChEMBL document CHEMBL4706561",
  "about": "“Efficient chemoenzymatic synthesis of fluorinated sialyl Thomsen-Friedenreich antigens and investigation of their characteristics” (Eur J Med Chem, 2020)",
  "molecular_target": "T1, Sialidase (Clostridium perfringens, UniProt P10481)",
  "T1 sequence (P10481 whole entry)": "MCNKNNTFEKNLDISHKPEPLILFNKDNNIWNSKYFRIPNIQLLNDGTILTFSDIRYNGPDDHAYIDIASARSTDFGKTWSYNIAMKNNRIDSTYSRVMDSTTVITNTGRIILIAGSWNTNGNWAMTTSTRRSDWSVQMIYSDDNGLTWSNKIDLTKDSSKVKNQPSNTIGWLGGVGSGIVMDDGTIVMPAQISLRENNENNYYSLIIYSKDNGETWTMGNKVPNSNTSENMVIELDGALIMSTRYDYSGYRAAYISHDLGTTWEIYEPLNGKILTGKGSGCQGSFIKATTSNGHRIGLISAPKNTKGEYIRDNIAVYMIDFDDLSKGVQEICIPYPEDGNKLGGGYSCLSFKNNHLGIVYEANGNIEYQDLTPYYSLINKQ",
  "assay": "Stability in D2O assessed as Clostridium perfringens sialidase-mediated hydrolysis by measuring betaKdn formation at 10 mM measured after 12 hrs by 1H NMR spectroscopy",
  "format": "ADME",
  "conditions": "10000 µM",
  "data": [
    {"smiles": "CC(=O)N[C@H]1[C@@H](OCCCN=[N+]=[N-])O[C@H](CO)[C@H](O)[C@@H]1O[C@@H]1O[C@H](CF)[C@H](O)[C@H](O[C@]2(C(=O)O)C[C@H](O)[C@@H](O)[C@H]([C@H](O)[C@H](O)CO)O2)[C@H]1O", "values": [
      {"measurement": "Drug metabolism", "result": "Metabolite_Notdetected"}
    ]}
  ]
}
